| SMILES | melting point [°C] |
| --- | --- |
| CCCCCCCC[C@H](CC(=O)OC(C)(C)C)C(=O)N1C(=O)OC[C@@H]1C(C)C | 58 to 59 |
| N#Cc1cc(-c2ccc(Cl)s2)[nH]c1Cl | > 200 |
| CCOC(=O)C(=O)NCC(=O)C(C)(C)C | 82 to 85 |
| CCN1CCCC1CNS(=O)(=O)c1ccc(Nc2ccnc3cc(C(F)(F)F)ccc23)cc1 (stereo not drawn) | 194 to 195 |
| CCN1CCC(c2ccc(Br)cc2)CC1 | 33 to 34 |
| CC1CCC(=NN)c2ncc(C(=O)NN)c(=O)n21 (stereo not drawn) | 219 to 220 |
| CCOC(=O)c1ccc(Br)c(OC(F)F)c1Br | 45 to 47 |
| COC(=O)CCCC#Cc1cc(Cl)ccc1NS(=O)(=O)c1ccc2nc(N)oc2c1 | 135 |
| COC(=O)CS(=O)(=O)c1ccc(OC)c(OC)c1 | 81 to 83 |
| CC1(CNC(=O)CCl)OCCO1 | 128 to 130 |
| Cc1[nH]c(=O)[nH]c1-c1cc(C(C)(C)C)c(O)c(C(C)(C)C)c1 | > 270 |
| CC(ON1C(C)(C)CC2(CC1(C)C)OCC(C)(C)CO2)c1ccc(O)cc1 (stereo not drawn) | 133 to 134 |
| CN(C)CCCNS(=O)(=O)c1ccc(C(C)(C)c2cc(C(C)(C)CC(C)(C)C)cc(-n3nc4ccccc4n3)c2O)cc1 | 96 to 101 |
| O=C(O)CCNC(=O)c1cc([N+](=O)[O-])c2ccccc2c1O | 254 |
| COc1cc2[nH]c(C)c(C(=O)C(=O)N3CCC(Oc4ccc(C(F)(F)F)cc4)CC3)c2cc1OC | 211 to 213 |
| CS(=O)(=O)c1ccc(-c2cc(Br)sc2-c2ccc(F)cc2)cc1 | 122 to 124 |
| CNc1coc2ccccc2c1=S | 134 |
| CC(=O)C1=C(O)C(=C(C)Nc2ccc(S)cc2)C(=O)OC1=O | 207 to 210 |
| O=C(O)C1=CSC2C(=Cc3cc4c(s3)CCSC4)C(=O)N12 (stereo not drawn) | > 250 |
| COC(=O)c1c(C)cc(OC)c(C)c1O | 87 to 90 |
| COP(=O)(OC)C(O)C(CC1CCCCC1)NC(=O)C(CC(C)C)NC(=O)OC(C)(C)C (stereo not drawn) | 157 |
| CC[C@H](N)C(=O)N1CCC[C@H]1C(=O)NCCCSC | 120 to 121 |

| SMILES | melting point [°C] |
| --- | --- |
| C=CCc1c(O)cc(C)c(O)c1C | 114 to 116 |
| Cc1cc(S(=O)(=O)C[N+](=O)[O-])c(C)cc1Cl | 113 to 114 |
| CCOc1ccc2c(c1)n(C1CCCCC1)c(=O)n2S(=O)(=O)c1ccc(NC(=O)N(CC)CC)cc1OC | 165 |
| CNc1cc(SC2CCN(C)CC2)ccc1[N+](=O)[O-] | 90 |
| CN(C(=O)OCc1ccccc1)[C@@H](CCC(=O)O)C(=O)O | 97 to 98 |
| COc1cc2ccc3c(OC)cccc3c2c(OC)c1OC | 80 to 82 |
| Cc1c(C(=O)Nc2ncc(CO)s2)nnn1Cc1ccc(Cl)c(Cl)c1 | 170 |
| FC(F)(F)Oc1ccc(Cn2cnc3c(-c4ccco4)ncnc32)cc1 | 146 to 147 |
| COC(=O)CONC(=O)c1c(Cl)ccc(Cl)c1OC | 102 to 105 |
| COc1cc(OC)nc(C2(O)OC(=O)c3c(Cl)ccc(Cl)c32)n1 (stereo not drawn) | 161 to 175 |
| COc1cc2c(Nc3cc(OC)c(OC)c(OC)c3)c(C#N)cnc2cc1F | 215 to 217 |
| CCCCCCCN=C1SC(=CC(=O)O)C(=O)N1CCCCCCC | 80 to 81 |
| CNC(=O)c1ccc(C(=O)OC)cc1N | 167 to 168 |
| COc1ccc(Cn2c(=O)[nH]c3ncccc3c2=O)cc1 | 272 to 273 |
| COC(=O)CCCCCCC(C(=O)OC)S(C)(=O)=O (stereo not drawn) | 47 to 48 |
| O=c1cc(-c2ccsc2)c2ccc(CCl)cc2o1 | 125 to 127 |
| CC(C)(C)OC(=O)N1CC[C@@H]2Nc3cccc(Br)c3[C@@H]2CC1 (relative stereo) | 124 |
| COC(=O)c1cc(N)c(N2CCCCC2)c(N)c1 | 133 to 134 |
| NC(=S)c1cc2c(cn1)[nH]c1ccccc12 | 274 to 276 |
| CCOc1noc2c1CN(C(=O)OC)CCC2 | 51.5 to 52 |
| COC(=O)C(=CN(C)C)c1cc(F)cc(F)c1 | 97 |
| O=CNc1nc(CSc2ccncc2)cs1 | 182 to 184 |

| SMILES | melting point [°C] |
| --- | --- |
| CC(=O)OCC(C)(C(=O)OC(C)(C)C)C(=O)c1ccccc1 (stereo not drawn) | 95 to 97 |
| CC(=O)N1CCN2c3c(cccc3C3CCCC32)C1 (stereo not drawn) | 111 to 113 |
| COc1ccc(Cl)cc1CN(CCO)c1ncnc2c1ncn2C1OC(CO)C(O)C1O (stereo not drawn) | 98 to 100 |
| CC1(C)CN(Cc2ccccc2[N+](=O)[O-])C(=O)S1 | 128 to 129 |
| CCc1cccc(N(C(=O)CCC(=O)O)c2cc(C(C)(C)C)c(O)c(C(C)(C)C)c2)c1 | 150 to 152 |
| COc1ccc(F)cc1Oc1c(NS(=O)(=O)c2ccc(C(C)(C)C)cc2)ncnc1OC[C@@H]1COC(C)(C)O1 | > 86 |
| O=[N+]([O-])c1cc(-c2cccnc2)ccc1O | > 300 |
| CCOP(=O)(O)Cc1cccc(C(F)(F)F)c1 | 48 to 51 |
| CSc1cc(C)cc(C)c1C=NO | 115 to 117 |
| CC(C)C12COc3cc(Cl)ccc3C1=NN(C(Cl)=Nc1ccc(C(F)(F)F)cc1)C2 (stereo not drawn) | 148 to 149 |
| CCOC(=O)C(=Cc1cccn2cc(C(C)(C)C)nc12)N=[N+]=[N-] | 108 to 110 |
| CCCCCCn1ccc(=O)c(OCc2ccccc2)c1C | 46 |
| CC(C)NN(C[C@@H](O)[C@H](Cc1ccccc1)NC(=O)OCc1ccccc1)C(=O)OC(C)(C)C | 118 to 120 |
| Cc1ccc(OCC(CO)NC(C)(C)C)c(-c2ccc(=S)[nH]n2)c1 (stereo not drawn) | 130 |
| CCCCc1nc2c(N)nc3ccccc3c2n1CCCCSc1ccc(F)cc1F | 122 to 126 |
| CC1(C)C2CC[C@]1(C)C(=O)C(C(=O)Nc1cc(C(F)(F)F)cc(C(F)(F)F)c1)C2=O (stereo partly drawn) | 68 to 72 |
| CCc1ccc(C(=O)O)c([N+](=O)[O-])c1 | 111 |
| Cc1ccc2nc(NCCCO)ccc2c1NC(=O)CC12CC3CC(CC(C3)C1)C2 | 168 to 174 |
| O=[N+]([O-])c1cccc(Nc2nc(Cl)nc(NC3CCCCCC3)n2)c1 | 82 |
| CCCc1ccc(C(=O)C(=O)OCC)[nH]1 | 48 to 49 |
| N#CC1CC(C#N)(c2ccc(OC(F)F)c(OCC3CC3)c2)CCC1=O (stereo not drawn) | 142 to 143 |

More lines, now with the values ahead:

| melting point [°C] | SMILES |
| --- | --- |
| 159 to 161 | Cc1ccc(CNC(=O)c2ccc3n2Cc2ccccc2N(C(=O)c2ccc(-c4ccccc4C)c(C)c2)C3)c(C)c1 |
| 185 | CC(C)c1nc2ccccc2cc1S(=O)(=O)c1ccc(O)cc1 |
| 201 to 203 | NS(=O)(=O)c1ccc(NC(=O)C(=O)N2CCC(Cc3ccc(F)cc3)CC2)cc1 |
| 100 to 102 | COC(=O)C(Oc1ccc(Cl)cc1)c1ccc(Oc2ccc(Cl)cc2)cc1 (stereo not drawn) |
| 190 to 192 | O=C1N(N2CCOCC2)c2ccccc2C1(Cc1ccncc1)c1ccccc1 (stereo not drawn) |
| 283 to 286 | O=C(O)c1cc(C(=O)O)cc(P(=O)(c2ccccc2)c2ccccc2)c1 |
| 82 to 83 | Nn1ccc(C(=O)c2ccccc2)c1 |
| 53 to 54 | Cc1cccc2nc(-c3ccccc3)sc12 |
| 93 to 96 | COC(=O)CCc1cc2cc(Cl)ccc2n1S(=O)(=O)c1ccccc1 |
| 207 to 208 | Nc1nc(-c2cc(Cl)ccc2Cl)nc(N2CCC2)n1 |
| 137 to 139 | CC(=O)c1ccc(Cc2c(Cl)cc(NN=Cc3ccccc3)cc2Cl)cc1 |
| 94 to 96 | CC(=O)c1ccc(OCCCN2CCC(c3noc4cc(F)ccc34)CC2)c(N(C)C)c1 |
| 146 to 148 | COc1ccc([C@@H]2O[C@H]2C(=O)O[C@@H]2CCCC[C@H]2c2ccccc2)cc1 |
| 138 to 140 | COc1ccc(COc2cccnc2NC(=S)Nc2ccc(Cl)cc2)c(F)c1 |
| 112 | Nc1scc(CN2CCN(c3ccccc3)CC2)c1C(=O)c1ccc(Cl)cc1 |
| 159 to 160 | O=C(NCCO)c1cccc(-c2cccc3cc(Cc4cccc(F)c4)oc23)c1 |
| 201 to 202 | O=S(=O)(Nc1cccc2cc(-c3nc4ccccc4s3)[nH]c12)c1cccs1 |
| 94 to 96 | O=C(Cl)c1ccc(Cl)cc1Sc1ccccc1 |
| 191 to 192 | O=[N+]([O-])c1ccc(S(=O)(=O)Nc2cccnc2Nc2ccccc2)cc1 |

| melting point [°C] | SMILES |
| --- | --- |
| 165 to 167 | Cn1c(-c2ccc(-c3cncs3)cc2)cnc1[C@H](Cc1ccccn1)N(C=O)c1cc2cc(Cl)ccc2o1 |
| 129 to 132 | CC(C)(c1ccccc1)N1CCC(=O)C(c2ccccc2)C1=O (stereo not drawn) |
| 272 to 274 | CC1Nc2cc(NC(=O)c3ccc(-c4ccccc4)cc3)ccc2N1C (stereo not drawn) |
| 99 | ClCc1c(-c2ccccc2)c(-c2ccccc2)nn1Cc1ccccc1 |
| 92 to 93 | O=C(O)C(=O)c1csc2ccccc12 |
| 156 to 159 | COC(=O)c1c(Cl)cc(Cl)cc1NC(=O)CSc1ccc(NC(=O)c2cccnc2)cc1 |
| 105 to 107 | COC(=O)C(=O)c1ccc(OCCOc2ccc(C)cc2)cc1 |
| 146 to 147 | CC(=O)N1CCC(=O)C(C(c2ccc(F)cc2)c2ccc(F)cc2)C1 (stereo not drawn) |
| 91 to 93 | COC(=O)c1ccc(/C=C(\C)c2ccc3c(c2)N(C)CCN3C)cc1 |
| 165 to 168 | N#CCCN1CCC(C2c3ccccc3C=Cc3ccccc32)CC1 |
| 105 to 107 | CC1(CN2CCN(C(=O)NCC=Cc3ccc(C(F)(F)F)cc3)CC2)Cn2cc([N+](=O)[O-])nc2O1 (stereo not drawn) |
| 185 | CCOC(=O)C1=C(C)Nc2nc(N3CCOCC3)nc(N3CCOCC3)c2C1c1cccnc1Cl (stereo not drawn) |
| 140 to 142 | CCOC(=O)c1ccc(N2CCC(NCC(O)COc3cccc([N+](=O)[O-])c3N)CC2)nc1 (stereo not drawn) |
| 99 to 101 | O=C1CCC(CO)N1C(=O)Nc1ccccc1 (stereo not drawn) |
| 130 to 132 | CC(C)NC(=O)OC1SCN(c2ccccc2)C1=O (stereo not drawn) |
| 180 to 181 | COc1ccc(N2CCN(C(=O)c3cn4cc(Cl)ccc4n3)CC2)cc1 |
| 140 to 142 | S=c1n(CCc2ccccc2)ccn1C1CCc2ccccc2C1 (stereo not drawn) |
| 145 to 148 | COC(=O)c1ccc(-c2cccc(N)c2)cc1 |
| 131 to 133 | CC(C)(C)OC(=O)N1CC(CCl)c2c1ccc1ccc(S(=O)(=O)N(Cc3ccccc3)Cc3ccccc3)cc21 (stereo not drawn) |

From a melting point compilation (Tetko et al.; mined from patent text by program, amines drawn as free bases though some values may be those of a salt)
